# Results reported in patent US20100099762A1, “COMBINATION THERAPY” (THE MENTAL HEALTH RESEARCH INSTITUTE OF VICTORIA, priority 2006, published 2010).
# Marks after values point to notes of the source that are not given here.
# How the values were obtained:
# schizophrenia = assay: Randomised double blind multicentre placebo controlled trial of NAC in combination with an antipsychotic agent in schizophrenia; type: in vivo, human
# Text: There is preclinical evidence of a reduction in antioxidant defences in schizophrenia, particularly a reduction in glutathione, which is a primary endogenous antioxidant defence. N-acetyl cysteine (NAC) is a bioavailable precursor of glutathione. This Example is a randomised double blind multicentre placebo controlled trial of the use of NAC in combination with an antipsychotic agent in the treatment of schizophrenia. A total of 140 individuals were randomised to receive 2 g daily of NAC in two divided doses, or placebo, together with their normal dosage of antipsychotic agent.
# Participants were assigned randomly and consecutively to treatment with NAC or placebo in a double blind fashion. The randomisation log was generated by an independent individual using the traditional coin tossing method. The investigators and clinicians remained blind until data analysis was completed. The person generating the randomisation schedule was not involved in participant interviews, either for participant eligibility or outcome measurements.
# All participants remained on their usual antipsychotic medication for the duration of the trial. The dose of the primary therapy was monitored. Participants were recruited through advertisements, referral by case clinicians and through database screening. All participants provided written informed consent as part of complying with the protocol.
# All randomised participants received two NAC (500 mg) capsules twice daily, to a total dose of 2 g daily, or matching placebo capsules. Human dosing can be up to 5 g/day without adverse effects (Louwerse E. S. et al., 1995). A daily dose that is within the range of efficacy in published clinical trials (Adair J. C. et al., 2001, Van Schooten F. J. et al., 2002, and Behr J, et al., 2002) was selected. Once per day dosing is desirable in the drug treatment of schizophrenia, where medication compliance is known to be a challenge in management. However, steady state plasma levels cannot be achieved with a once daily oral dose of NAC as the plasma half-life is only 2-3 hours (Holdiness M. R., 1991 and Kelly G. S., 1998). While a twice-daily (BID) dosing regimen would also not be expected to achieve steady state plasma levels, dose intervals beyond BID were considered to markedly increase the risk of non-compliance in this population.
# To be included, the patients were required to meet Diagnostic and Statistical Manual of Mental Disorders, fourth edition (DSM-IV) (Association AP, 1994) criteria for schizophrenia and have a PANSS total score of ≧55, or at least two items in the positive and/or negative items being >3, or have a CGI-S≧3. They needed to have the capacity to consent to the study, and be aged between 18 and 65. Both inpatients and outpatients were eligible. Participants needed to be currently taking an antipsychotic agent and to be utilising effective contraception if female and of childbearing age. Exclusion criteria included patients with abnormal renal, hepatic, thyroid or haematological findings, patients with a systemic medical disorder including asthma, allergies or any history of bronchospasm, respiratory insufficiency and recent gastrointestinal ulcers and females who were positive on pregnancy screening testing at baseline. Participants who were taking a mood stabiliser (e.g. lithium, valproate and carbamazepine) were excluded as were those currently taking drugs that are known to prevent GSH depletion (500+mg of NAC/day, 200+ug of selenium/day or 500+IU of Vitamin E/day).
# Withdrawal from the trial occurred if participants ceased taking their trial medication for seven consecutive days, or ceased effective contraception, or became pregnant. A change in primary antipsychotic from one medication to another required participants to be withdrawn from the study. Similarly, the addition of a mood stabiliser required withdrawal of the participant. Dose changes to existing medications were not an exclusion criterion, and this was monitored. […]
# plasma glutathione = assay: Parallel study of plasma glutathione at the trial dose of NAC; type: in vivo; conditions: NAC at this dose (2 g daily)
# [1] = oral NAC; cited from earlier work
# [2] = score at week 24, end of treatment
# [3] = washout, week 28, LOCF ANCOVA with interaction term
# [4] = week 8, LOCF ANCOVA, Placebo-NAC
# [5] = week 24, LOCF ANCOVA, Placebo-NAC
# [6] = week 24 to washout, week 28, LOCF ANCOVA
# [7] = week 24 to washout, week 28, LOCF ANCOVA with interaction term
smiles,measurement,setting,value
"CC(=O)N[C@@H](CS)C(=O)O [NAC, N-acetyl cysteine]",PANSS Negative: NAC Mean Week 24 (SD),schizophrenia; [2],13.7 (4.9)
same,PANSS Positive: NAC Mean Week 24 (SD),schizophrenia; [2],14.5 (5.6)
same,PANSS Total: NAC Mean Week 24 (SD),schizophrenia; [2],57.0 (16.1)
same,SAS: NAC Mean Week 24 (SD),schizophrenia; [2],1.6 (1.3)
same,SOFAS: NAC Mean Week 24 (SD),schizophrenia; [2],58.8 (12.7)
same,Onset of clinical benefit on CGI-I (scores significantly better than placebo),"schizophrenia; time from commencing treatment, Fisher's categorical analysis",≤ 4 weeks
same,Onset of clinical benefit on CGI-S (scores significantly better than placebo),"schizophrenia; time from commencing treatment, MMRM",≤ 2 weeks
same,AIMS: LS Mean Difference (95% CI) between placebo and NAC at post-treatment discontinuation,"schizophrenia; washout, week 28, LOCF ANCOVA","−0.40 (−1.41, 0.61)"
same,BAS: LS Mean Difference (95% CI) between placebo and NAC at post-treatment discontinuation,"schizophrenia; washout, week 28, LOCF ANCOVA","−0.31 (−0.91, 0.29)^‡"
same,GAF: LS Mean Difference (95% CI) between placebo and NAC at post-treatment discontinuation,"schizophrenia; washout, week 28, LOCF ANCOVA","0.61 (−3.5, 4.72)^‡"
same,PANSS Positive: LS Mean Difference (95% CI) between placebo and NAC at post-treatment discontinuation,"schizophrenia; washout, week 28, LOCF ANCOVA","0.75 (−0.72, 2.22)"
same,SAS: LS Mean Difference (95% CI) between placebo and NAC at post-treatment discontinuation,"schizophrenia; washout, week 28, LOCF ANCOVA","−0.52 (−0.99, −0.05)*"
same,SOFAS: LS Mean Difference (95% CI) between placebo and NAC at post-treatment discontinuation,"schizophrenia; washout, week 28, LOCF ANCOVA","−1.17 (−4.89, 2.55)"
same,PANSS General: LS Mean Difference (95% CI) between placebo and NAC at post-treatment discontinuation,schizophrenia; [3],"−0.85 (−3.45, 1.75)^‡"
same,PANSS Negative: LS Mean Difference (95% CI) between placebo and NAC at post-treatment discontinuation,schizophrenia; [3],"−1.58 (−3.17, 0.00)^‡"
same,PANSS Total: LS Mean Difference (95% CI) between placebo and NAC at post-treatment discontinuation,schizophrenia; [3],"−2.70 (−6.85, 1.45)^‡"
same,AIMS: Between Placebo-NAC differences Week 8 LS Mean Difference (95% CI),schizophrenia; [4],"−0.31 (−1.0, 0.41)"
same,BAS: Between Placebo-NAC differences Week 8 LS Mean Difference (95% CI),schizophrenia; [4],"0.20 (−0.24, 0.64)"
same,GAF: Between Placebo-NAC differences Week 8 LS Mean Difference (95% CI),schizophrenia; [4],"−0.51 (−3.7, 2.7)"
same,PANSS General: Between Placebo-NAC differences Week 8 LS Mean Difference (95% CI),schizophrenia; [4],"−1.5 (−3.4, 0.34)"
same,PANSS Negative: Between Placebo-NAC differences Week 8 LS Mean Difference (95% CI),schizophrenia; [4],"−0.49 (−1.8, 0.80)"
same,PANSS Positive: Between Placebo-NAC differences Week 8 LS Mean Difference (95% CI),schizophrenia; [4],"−0.25 (−1.5, 0.98)"
same,PANSS Total: Between Placebo-NAC differences Week 8 LS Mean Difference (95% CI),schizophrenia; [4],"−2.6 (−6.1, 0.80)"
same,SAS: Between Placebo-NAC differences Week 8 LS Mean Difference (95% CI),schizophrenia; [4],"−0.06 (−0.39, 0.26)"
same,SOFAS: Between Placebo-NAC differences Week 8 LS Mean Difference (95% CI),schizophrenia; [4],"−0.20 (−3.9, 3.5)"
same,AIMS: Between Placebo-NAC differences Week 24 LS Mean Difference (95% CI),schizophrenia; [5],"0.12 (−0.65, 0.89)"
same,BAS: Between Placebo-NAC differences Week 24 LS Mean Difference (95% CI),schizophrenia; [5],"0.54 (0.08, 1.00)*"
same,GAF: Between Placebo-NAC differences Week 24 LS Mean Difference (95% CI),schizophrenia; [5],"−2.6 (−6.6, 1.3)"
same,PANSS Positive: Between Placebo-NAC differences Week 24 LS Mean Difference (95% CI),schizophrenia; [5],"0.50 (−1.1, 2.1)"
same,SAS: Between Placebo-NAC differences Week 24 LS Mean Difference (95% CI),schizophrenia; [5],"0.11 (−0.27, 0.50)"
same,SOFAS: Between Placebo-NAC differences Week 24 LS Mean Difference (95% CI),schizophrenia; [5],"−0.92 (−5.67, 3.82)"
same,AIMS: NAC Mean Overall Change (95% CI) at post-treatment discontinuation,schizophrenia; [6],"−0.27 (−1.0, 0.50)"
same,BAS: NAC Mean Overall Change (95% CI) at post-treatment discontinuation,schizophrenia; [6],"0.42 (−0.02, 0.86)"
same,CGI-S: NAC Mean Overall Change (95% CI) at post-treatment discontinuation,schizophrenia; [6],"−0.17 (−0.41, 0.08)"
same,GAF: NAC Mean Overall Change (95% CI) at post-treatment discontinuation,schizophrenia; [6],"0.37 (−2.7, 3.5)"
same,PANSS Positive: NAC Mean Overall Change (95% CI) at post-treatment discontinuation,schizophrenia; [6],"−0.96 (−2.0, 0.12)"
same,SAS: NAC Mean Overall Change (95% CI) at post-treatment discontinuation,schizophrenia; [6],"0.30 (−0.06, 0.65)"
same,SOFAS: NAC Mean Overall Change (95% CI) at post-treatment discontinuation,schizophrenia; [6],"−0.79 (−3.8, 2.2)"
same,PANSS General: NAC Mean Overall Change (95% CI) at post-treatment discontinuation,schizophrenia; [7],"0.18 (−1.7, 2.1)"
same,PANSS Negative: NAC Mean Overall Change (95% CI) at post-treatment discontinuation,schizophrenia; [7],"0.60 (−0.55, 1.7)"
same,PANSS Total: NAC Mean Overall Change (95% CI) at post-treatment discontinuation,schizophrenia; [7],"0.56 (−2.4, 3.6)"
same,Proportion of patients clinically improved on the CGI-I scale referred to baseline,"schizophrenia; week 28, after washout, NAC versus placebo",remained significantly greater
same,More subjects in the NAC treatment group showing improvement on CGI-I compared to placebo,"schizophrenia; weeks 12, 16 and 24",≈ 25%
same,Plasma glutathione,plasma glutathione,significantly increased
same,Plasma half-life,[1],2 to 3 h
